These are literature values, as cited in patent US20050058718A1, “Preparations for cigarette toxicity reduction, health enhancement, and addiction elimination” (priority 2003, published 2005).

Series [1] concerns leukoderma in their mouths and throats. As to conditions: 3 ppm selenium in drinking water.
The next series deals with cancer cells. Particulars: cancer cells external of the human body treated by selenium.
Where [2] appears, read: 1300 people, 200 ug selenium daily for five years.

As for `[Se]` [selenium], the “delay of cancer formation versus control group” value in series [1] was “two more weeks”. Moreover, the “decrease of carcinogenicity of cancer cells” value in the series with cancer cells is 60%. For the same molecule, in the series on cancer incidence (setting [2]), the “reduction of large intestine and rectum cancer incidence” value is 58%; the “reduction of lung cancer incidence” value is given as 46%; the “reduction of prostate cancer incidence” value is given as 63%. Also, the “more chance to survive when sick from cancer” value with cancer incidence (selenium takers sick from cancer) is reported as 50%.
